Data set [1] has as its system U2OS cells. Description: Cell-cycle distribution by flow cytometry. Format: cell-based, human. The conditions noted are these: for cell-cycle distribution after IR exposure: 24 h post-irradiation.
Description: To test this possibility, U2OS cells were pre-treated with S or AS oligonucleotides, exposed to IR, and cell-cycle distributions at 24 h post-irradiation were determined.
For data set [2], the system named is p53. The data set can be described thus: p53 Ser-15 phosphorylation and p53 accumulation (immunoblot). Format: cell-based, human. The source says:
A major mediator of stress-induced signaling in mammalian cells is the tumor suppressor protein, p53 (Ko and Prives, Genes and Development 10:1054-1072, (1996); Ryan et al., Curr. Opin. Cell Biol. 13:332-337 (2001)). ATX phosphorylates p53 on Ser-15 (FIG. 1C), a site implicated in the regulation of p53 stability and transcriptional activity (Dumaz and Meek, Curr. Opin. Cell Biol. 13:225-231 (1999); Zhang and Xiong, Science 292:1910-1915 (2001)). Therefore, the possibility that these two proteins are functionally linked during cellular stress responses was investigated. U2OS cells were transiently transfected with a HA-ATXWT or HA-ATXKI expression plasmid, together with a GFP-encoding plasmid to allow for FACS-based enrichment of the transfected cells. The GFP+ cells were then examined for IR-induced stabilization of p53, as well as for specific phosphorylation of this protein on Ser-15. […] In contrast, overexpression of ATXWT enhanced both of these responses in cells exposed to IR.
The recognition of UV light-induced DNA damage occurs primarily during S phase, when pyrimidine dimers and other bulky lesions interfere with replication fork progression (Friedberg, DNA Repair and Mutagenesis (Washington, D.C., ASM Press) (1995); Lindahl and Wood, Cell 103:1121-1131 (1999)).
In order to further define the potential linkage between DNA replicational stress and ATX, the response of AS-treated cells to 5-fluorouracil (5-FU), an S-phase specific cytotoxic agent was examined (Danenberg et al., Seminars in Oncology. 26:621-631 (1999); Grem, Investigational New Drugs 18:299-313 (2000)).
Changes in phosphorylation at Ser-15 are typically accompanied by alterations in the expression of the p53 protein, which complicates the interpretation of results obtained by immunoblotting of whole cell extracts with phospho-Ser-15-specific antibodies. In order to confirm that reduced ATX expression interferes with stress-induced Ser-15 phosphorylation, U2OS cells were transfected with either the S or AS oligonucleotide, and then were pretreated with the proteasome inhibitor, LLnV, to stabilize p53. In the presence of LLnV, the p53 level in each test population was relatively unaffected by UV exposure (data not shown). However, the ratio of phospho-Ser-15 to total p53 protein was increased by UV irradiation of both the mock-transfected and S oligonucleotide-treated cells.
(In general: Immunoblotting shows a protein as a band on a membrane.)

Data set [3] has as its system ATX. Description: ATX protein level in oligonucleotide-treated cells (immunoblot). The class given is cell-based, human. The conditions noted are these: U2OS.
The subject of data set [4] is U2OS cells. Description: Clonogenic survival assay of oligonucleotide-transfected cells. Format: cell-based, human. The following applies: for reduction of basal level of colony outgrowth (basal clonogenic activity): non-irradiated, 10 days in culture.
Data set [5] deals with hChk2. The data set can be described thus: IR-dependent phosphorylation of hChk2 (immunoblot). The class given is cell-based, human. The conditions noted are these: U2OS. The source says:
Recent findings point toward ATM as a critical upstream regulator of the activity of the checkpoint kinase, hChk2, in IR-damaged cells (Ahn et al., Cancer Res. 60:5934-5936 (2000); Melchionna et al., Nat. Cell Biol. 2:762-765 (2000)). To determine whether ATX was also involved in hChk2 activation, the effect of AS oligonucleotide treatment on the IR-dependent phosphorylation of hChk2 was examined. […] Moreover, the differential effects of AS treatment on p53 expression versus hChk2 activation argue against the possibility that AS exposure leads to nonspecific inhibition of checkpoint signaling responses to IR-induced DNA damage.

Data set [6] deals with T1, ATX (Homo sapiens, UniProt Q96Q15).
T1 construct: expressed in transfected cells; host or cells: HEK 293T, pcDNA3.1, immunoprecipitated with anti-HA antibody
Description: Immune complex kinase assay, immunoprecipitated HA-ATXWT, GST-p53 1-70 substrate. The conditions noted are these: pretreatment of immunoprecipitated HA-ATXWT; GST-p53 1-70 phosphorylation; read-out: drug concentration required for 50% inhibition (IC50) of ATX activity in vitro. Format: biochemical.

T1 sequence (Q96Q15 141-3661 S144C): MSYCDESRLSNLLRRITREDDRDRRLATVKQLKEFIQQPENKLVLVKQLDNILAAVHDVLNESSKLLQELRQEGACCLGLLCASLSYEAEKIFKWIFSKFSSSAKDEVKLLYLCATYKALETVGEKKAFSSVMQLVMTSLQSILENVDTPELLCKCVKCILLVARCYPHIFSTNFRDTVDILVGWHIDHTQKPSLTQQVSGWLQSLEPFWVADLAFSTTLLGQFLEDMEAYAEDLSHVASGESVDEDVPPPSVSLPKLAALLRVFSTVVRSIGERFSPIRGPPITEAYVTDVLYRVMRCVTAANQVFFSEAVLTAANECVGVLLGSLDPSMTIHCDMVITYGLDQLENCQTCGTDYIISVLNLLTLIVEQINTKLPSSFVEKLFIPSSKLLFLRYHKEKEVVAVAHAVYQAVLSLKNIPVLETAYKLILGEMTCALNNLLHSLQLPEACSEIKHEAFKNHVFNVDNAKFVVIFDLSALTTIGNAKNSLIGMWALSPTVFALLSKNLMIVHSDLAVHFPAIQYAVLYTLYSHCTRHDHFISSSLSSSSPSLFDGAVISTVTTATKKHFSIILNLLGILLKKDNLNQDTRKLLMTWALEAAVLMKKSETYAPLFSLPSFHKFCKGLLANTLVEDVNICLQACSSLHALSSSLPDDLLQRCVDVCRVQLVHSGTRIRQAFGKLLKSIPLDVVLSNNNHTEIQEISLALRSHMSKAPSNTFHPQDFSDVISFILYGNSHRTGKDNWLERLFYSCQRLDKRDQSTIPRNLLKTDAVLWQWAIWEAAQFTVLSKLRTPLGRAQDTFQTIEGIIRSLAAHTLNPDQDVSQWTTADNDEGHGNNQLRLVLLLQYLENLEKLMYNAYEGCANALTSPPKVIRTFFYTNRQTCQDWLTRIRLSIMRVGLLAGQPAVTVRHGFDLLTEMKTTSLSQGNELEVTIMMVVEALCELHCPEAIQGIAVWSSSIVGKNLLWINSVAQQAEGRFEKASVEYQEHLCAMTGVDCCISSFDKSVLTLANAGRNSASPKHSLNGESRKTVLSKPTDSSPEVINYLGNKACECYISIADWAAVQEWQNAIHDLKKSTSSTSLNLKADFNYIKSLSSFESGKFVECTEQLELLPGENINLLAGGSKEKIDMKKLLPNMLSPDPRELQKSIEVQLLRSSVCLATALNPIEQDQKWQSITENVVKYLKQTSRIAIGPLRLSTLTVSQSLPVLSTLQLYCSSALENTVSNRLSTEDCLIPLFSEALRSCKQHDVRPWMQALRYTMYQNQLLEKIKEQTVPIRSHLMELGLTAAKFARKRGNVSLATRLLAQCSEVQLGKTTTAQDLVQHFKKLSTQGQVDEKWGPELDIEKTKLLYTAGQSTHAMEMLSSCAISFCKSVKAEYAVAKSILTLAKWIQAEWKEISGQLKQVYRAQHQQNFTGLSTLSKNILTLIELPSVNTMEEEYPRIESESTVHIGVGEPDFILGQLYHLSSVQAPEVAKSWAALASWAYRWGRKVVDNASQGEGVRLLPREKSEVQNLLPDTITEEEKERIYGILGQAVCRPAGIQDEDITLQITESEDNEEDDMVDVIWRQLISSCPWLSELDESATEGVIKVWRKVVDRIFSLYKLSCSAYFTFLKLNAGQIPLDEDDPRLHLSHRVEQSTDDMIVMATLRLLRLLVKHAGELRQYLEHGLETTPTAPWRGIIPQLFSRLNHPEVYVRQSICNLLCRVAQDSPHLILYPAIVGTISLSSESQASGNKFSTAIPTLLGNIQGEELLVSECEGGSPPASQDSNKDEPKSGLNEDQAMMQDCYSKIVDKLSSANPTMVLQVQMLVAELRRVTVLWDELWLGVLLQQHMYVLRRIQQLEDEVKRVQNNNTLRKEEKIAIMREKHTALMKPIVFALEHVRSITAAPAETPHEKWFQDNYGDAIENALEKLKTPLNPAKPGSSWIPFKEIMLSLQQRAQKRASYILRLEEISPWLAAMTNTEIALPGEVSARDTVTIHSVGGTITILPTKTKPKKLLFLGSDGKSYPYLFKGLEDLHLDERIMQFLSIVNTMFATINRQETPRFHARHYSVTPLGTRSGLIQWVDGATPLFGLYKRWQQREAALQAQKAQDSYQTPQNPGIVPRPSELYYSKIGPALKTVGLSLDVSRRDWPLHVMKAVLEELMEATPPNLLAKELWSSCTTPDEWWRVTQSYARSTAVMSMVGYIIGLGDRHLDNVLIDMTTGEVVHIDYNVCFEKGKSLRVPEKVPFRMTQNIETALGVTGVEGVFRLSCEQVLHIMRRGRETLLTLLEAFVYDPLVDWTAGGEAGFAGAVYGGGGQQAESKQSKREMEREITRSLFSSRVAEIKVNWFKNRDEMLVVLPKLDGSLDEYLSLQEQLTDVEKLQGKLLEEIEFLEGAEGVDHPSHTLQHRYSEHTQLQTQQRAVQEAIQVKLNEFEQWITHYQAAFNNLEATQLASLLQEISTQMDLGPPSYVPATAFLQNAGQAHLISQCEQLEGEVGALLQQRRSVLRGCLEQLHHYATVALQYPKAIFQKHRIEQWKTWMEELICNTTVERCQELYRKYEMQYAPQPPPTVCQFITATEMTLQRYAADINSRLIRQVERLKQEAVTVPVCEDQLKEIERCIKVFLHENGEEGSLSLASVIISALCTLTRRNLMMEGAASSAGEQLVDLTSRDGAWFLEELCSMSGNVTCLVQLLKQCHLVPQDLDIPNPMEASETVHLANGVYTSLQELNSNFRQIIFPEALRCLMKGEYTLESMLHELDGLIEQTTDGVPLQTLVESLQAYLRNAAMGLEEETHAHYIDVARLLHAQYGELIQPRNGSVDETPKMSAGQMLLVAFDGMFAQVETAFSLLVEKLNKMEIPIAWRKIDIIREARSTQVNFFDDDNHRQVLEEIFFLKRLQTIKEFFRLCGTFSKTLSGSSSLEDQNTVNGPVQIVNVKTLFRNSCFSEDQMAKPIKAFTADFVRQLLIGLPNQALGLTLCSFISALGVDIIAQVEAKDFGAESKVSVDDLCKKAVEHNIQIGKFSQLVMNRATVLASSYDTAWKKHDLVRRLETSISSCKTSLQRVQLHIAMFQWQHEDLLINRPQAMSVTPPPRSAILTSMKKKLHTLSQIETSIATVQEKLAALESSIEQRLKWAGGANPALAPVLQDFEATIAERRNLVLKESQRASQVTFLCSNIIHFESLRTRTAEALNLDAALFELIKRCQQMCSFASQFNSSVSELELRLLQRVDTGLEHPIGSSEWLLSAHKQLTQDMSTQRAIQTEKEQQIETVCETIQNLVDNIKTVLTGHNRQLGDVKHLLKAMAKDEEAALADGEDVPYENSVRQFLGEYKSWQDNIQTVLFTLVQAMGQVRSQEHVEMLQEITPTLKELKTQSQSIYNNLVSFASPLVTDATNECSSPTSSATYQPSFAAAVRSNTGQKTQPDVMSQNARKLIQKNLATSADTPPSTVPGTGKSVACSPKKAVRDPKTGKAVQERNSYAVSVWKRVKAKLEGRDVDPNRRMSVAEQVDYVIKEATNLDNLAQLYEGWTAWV

Regarding “5′-AGCAAGCTCCCTCCTGTCTC-3′ (phosphorothioate backbone, further chemistry not given here) [AS oligonucleotide, antisense phosphorothioate oligonucleotide complementary to ATX nucleotides 210-229]”, the “cell-cycle distribution after IR exposure” value in data set [1] is recorded as “arrested primarily in G2/M phase”. Besides, in data set [1] (compared to S oligonucleotide-treated cells), the “cell-cycle distribution in the absence of IR” value was “reduction in the percentage of G1 phase cells, and a concomitant accumulation of G2/M phase cells”. In data set [2] (AS-treated U2OS versus S-treated), the “level of p53 induction by 5-FU” value is given as “identical to that observed in their S-treated counterparts”. In data set [2] (U2OS pretreated with proteasome inhibitor LLnV), the “stoichiometric increase in Ser-15 phosphorylation triggered by UV-induced stress” value is “effectively blocked”. Further, the “phosphorylation and stabilization of p53 induced by IR exposure” value in data set [2] (U2OS, IR) was “reduced both the phosphorylation and stabilization of p53”. For the same molecule, in data set [2] (U2OS, UV), the “Ser-15 phosphorylation and p53 protein accumulation in UV-damaged cells” value is reported as “severely impaired”. Besides, in data set [3] (immunoblot), the “expression levels of control proteins ATM and PLC-γ1” value is given as “no significant change”. Further, the “reduction in ATX protein” value in data set [3] (over 10 independent trials) is reported as 50-90%. The “sensitivity to suppressive effects of IR and UV on clonogenic survival” value in data set [4] (IR (FIG. 2C) and UV) is “significantly more sensitive”. Moreover, the “reduction of basal level of colony outgrowth (basal clonogenic activity)” value in data set [4] was determined as 75%. In data set [5], the “IR-dependent phosphorylation of hChk2” value is reported as “retained the ability to phosphorylate hChk2”.
For the molecule `O=c1[nH]cc(F)c(=O)[nH]1` [5-FU, 5-fluorouracil, reference compound], in data set [2] (U2OS treated with the drug), the “p53 Ser-15 phosphorylation” value is recorded as “not accompanied by an increase in Ser-15 phosphorylation” and the p53 expression entry is on record as “increased p53 expression to levels similar to those observed in UV-irradiated cells”.
Consider `COC[C@H]1OC(=O)c2coc3c2[C@@]1(C)C1=C(C3=O)[C@@H]2CCC(=O)[C@@]2(C)C[C@H]1OC(C)=O` [wortmannin], for which the IC50 in data set [6] fell in the range of 10 to 100 nM.
On to “5′-GAGACAGGAGGGAGCTTGCT-3′ (all phosphorothioate, sugars by position and methylation of C not given here) [S oligonucleotide, reference compound]”, for which the “cell-cycle distribution after IR exposure” value in data set [1] was “accumulated in both G1 and G2/M phases”. Besides, the “reduction of basal level of colony outgrowth (basal clonogenic activity)” value in data set [4] worked out at 25%.

For the origin of these results see patent publication US7537911B2, “ATM related kinase, ATX, nucleic acids encoding same and methods of use” (Burnham Institute for Medical Research, priority 2002, dated 2009).
